{"source": "ChEMBL document CHEMBL2021814", "about": "“Fragment-based and structure-guided discovery and optimization of Rho kinase inhibitors” (J Med Chem, 2012)", "key": {"[1]": {"biological_target": "Rho-associated protein kinase 1 (Homo sapiens, UniProt Q13464)", "sequence (Q13464 whole entry)": "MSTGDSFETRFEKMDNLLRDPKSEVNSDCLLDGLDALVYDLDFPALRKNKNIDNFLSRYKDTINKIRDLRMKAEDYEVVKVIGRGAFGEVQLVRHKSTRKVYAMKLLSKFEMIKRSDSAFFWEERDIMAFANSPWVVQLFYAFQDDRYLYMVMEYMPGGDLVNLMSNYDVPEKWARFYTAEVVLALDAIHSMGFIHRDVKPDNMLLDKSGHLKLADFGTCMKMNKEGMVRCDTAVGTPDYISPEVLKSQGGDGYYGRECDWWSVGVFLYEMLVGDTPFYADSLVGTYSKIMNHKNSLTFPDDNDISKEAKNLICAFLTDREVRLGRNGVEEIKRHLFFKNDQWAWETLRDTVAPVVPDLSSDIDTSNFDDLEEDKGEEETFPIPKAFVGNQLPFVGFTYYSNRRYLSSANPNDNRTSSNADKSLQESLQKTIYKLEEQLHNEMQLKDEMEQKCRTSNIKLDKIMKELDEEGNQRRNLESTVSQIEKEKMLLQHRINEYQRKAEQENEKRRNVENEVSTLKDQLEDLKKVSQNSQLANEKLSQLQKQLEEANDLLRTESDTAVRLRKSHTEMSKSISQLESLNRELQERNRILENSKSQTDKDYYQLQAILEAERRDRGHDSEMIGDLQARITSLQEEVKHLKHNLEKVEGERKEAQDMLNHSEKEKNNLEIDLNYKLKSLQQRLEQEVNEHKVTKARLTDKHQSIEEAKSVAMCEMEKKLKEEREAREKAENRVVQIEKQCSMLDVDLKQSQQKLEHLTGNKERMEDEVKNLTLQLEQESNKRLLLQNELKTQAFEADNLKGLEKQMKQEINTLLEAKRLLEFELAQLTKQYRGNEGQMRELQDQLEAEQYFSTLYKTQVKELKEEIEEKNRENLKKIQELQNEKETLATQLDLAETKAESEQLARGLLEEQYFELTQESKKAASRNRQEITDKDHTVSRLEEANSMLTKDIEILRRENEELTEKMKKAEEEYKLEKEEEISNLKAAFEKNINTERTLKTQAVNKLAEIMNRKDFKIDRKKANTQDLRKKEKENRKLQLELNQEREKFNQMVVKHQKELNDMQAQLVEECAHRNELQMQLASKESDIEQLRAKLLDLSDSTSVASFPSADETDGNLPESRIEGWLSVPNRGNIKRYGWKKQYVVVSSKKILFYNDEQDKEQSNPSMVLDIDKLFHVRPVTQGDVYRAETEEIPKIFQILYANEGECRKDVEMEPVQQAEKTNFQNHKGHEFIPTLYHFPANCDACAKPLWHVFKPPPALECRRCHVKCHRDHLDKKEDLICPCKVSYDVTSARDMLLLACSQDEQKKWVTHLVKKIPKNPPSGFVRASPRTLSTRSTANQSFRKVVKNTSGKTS", "experiment": "Inhibition of human His-puritin-tagged ROCK1 expressed in Sf9 cells after 1 hr by FRET-based enzyme-coupled assay"}, "[2]": {"biological_target": "Rho-associated protein kinase 2 (Homo sapiens, UniProt O75116)", "sequence (O75116 whole entry)": "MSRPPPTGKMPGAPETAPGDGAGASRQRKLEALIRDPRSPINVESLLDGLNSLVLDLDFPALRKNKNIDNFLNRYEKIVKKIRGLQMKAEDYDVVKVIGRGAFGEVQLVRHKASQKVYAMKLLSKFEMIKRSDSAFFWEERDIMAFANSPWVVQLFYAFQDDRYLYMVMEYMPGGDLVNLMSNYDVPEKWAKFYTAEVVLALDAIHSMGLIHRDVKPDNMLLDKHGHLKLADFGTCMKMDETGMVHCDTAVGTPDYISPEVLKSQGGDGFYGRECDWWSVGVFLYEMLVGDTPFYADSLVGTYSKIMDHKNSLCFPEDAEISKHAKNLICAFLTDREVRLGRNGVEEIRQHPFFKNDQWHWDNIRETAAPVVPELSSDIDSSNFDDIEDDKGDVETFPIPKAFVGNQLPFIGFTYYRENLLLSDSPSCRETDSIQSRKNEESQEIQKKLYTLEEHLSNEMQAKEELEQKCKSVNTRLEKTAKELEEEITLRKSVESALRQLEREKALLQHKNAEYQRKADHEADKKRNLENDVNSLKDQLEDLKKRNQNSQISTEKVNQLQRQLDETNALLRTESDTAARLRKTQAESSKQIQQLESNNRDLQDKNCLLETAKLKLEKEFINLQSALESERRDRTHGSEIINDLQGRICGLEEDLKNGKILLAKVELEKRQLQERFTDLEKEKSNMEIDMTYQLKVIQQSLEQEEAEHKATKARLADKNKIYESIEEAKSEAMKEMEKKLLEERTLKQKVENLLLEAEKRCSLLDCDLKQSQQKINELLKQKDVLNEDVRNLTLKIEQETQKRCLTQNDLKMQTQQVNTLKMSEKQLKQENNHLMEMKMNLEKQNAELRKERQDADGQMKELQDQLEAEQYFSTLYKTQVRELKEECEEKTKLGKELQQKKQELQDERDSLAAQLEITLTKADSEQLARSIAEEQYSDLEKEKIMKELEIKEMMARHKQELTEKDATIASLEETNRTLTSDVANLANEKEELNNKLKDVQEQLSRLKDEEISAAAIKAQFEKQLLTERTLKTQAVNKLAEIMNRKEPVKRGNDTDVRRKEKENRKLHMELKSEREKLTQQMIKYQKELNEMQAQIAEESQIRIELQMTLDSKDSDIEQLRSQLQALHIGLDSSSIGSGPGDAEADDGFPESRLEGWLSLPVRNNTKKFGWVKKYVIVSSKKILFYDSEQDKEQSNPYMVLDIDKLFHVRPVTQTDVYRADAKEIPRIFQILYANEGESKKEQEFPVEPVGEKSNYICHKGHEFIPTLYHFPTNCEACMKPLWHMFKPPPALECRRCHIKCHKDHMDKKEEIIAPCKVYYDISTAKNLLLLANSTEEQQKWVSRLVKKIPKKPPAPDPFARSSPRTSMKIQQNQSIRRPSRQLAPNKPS", "experiment": "Inhibition of ROCK2 after 1 hr by FRET-based enzyme-coupled assay"}}}
{"compound": "O=C(Nc1ccncc1)c1cnccc1-c1ccc(F)cc1", "values": [{"measurement": "IC50", "setting": "[1]", "result": "> 400", "unit": "µM"}, {"measurement": "IC50", "setting": "[2]", "result": "> 400", "unit": "µM"}]}
{"compound": "O=C(Nc1ccncc1)c1cncc(-c2ccc(F)cc2)c1", "values": [{"measurement": "IC50", "setting": "[1]", "result": "> 400", "unit": "µM"}, {"measurement": "IC50", "setting": "[2]", "result": "> 400", "unit": "µM"}]}
